System: p21
Experiment: p21 and p53 expression in U2-OS cells
Type: cell-based, human
Details: etoposide treatment
Description: U2-OS, HOS, SJSA, SAOS, or MG-63 cells were grown to 10-25% confluence and transfected with the plasmids indicated in combination with the marker plasmid pMACS using FuGENE 6 (Sigma).
Transfected cells were sorted with MACS-select H-2K^k microbeads (Miltenyi Biotec). RNA was extracted from cultured or sorted transfected cells with Qiagen RNeasy Mini kits. Protein was extracted from sorted or cultured cells via lysis in NP-40 buffer (1% NP-40, 120 mM NaCl, 50 mM Tris, pH=7.4, 1 mM EDTA) supplemented with protease inhibitor cocktail I and phosphatase inhibitor cocktails 1 and 2 (Calbiochem). Lysates were clarified by centrifugation at 15,000×G for 10 minutes prior to analysis. Protein content was normalized by BCA protein assay (Thermo Scientific). For dual shRNA/siRNA experiments, cells were transfected with DNA expression vectors via Fugene and subsequently transfected with control siRNA (sense-5′-[…]-3′ (SEQ ID NO:20)) or siRNA targeting p21 (5′-[…]-3′ (SEQ ID NO:21)) via nucleofection with program X-001 in nucleofection solution V (Lonza). DT-40 cells were transfected by nucleofection with program B-023 in nucleofection solution T (Lonza).
Rat monoclonal antibodies were raised against the C-terminal 100 amino-acids of human USP1 or WDR48 to produce the monoclonal USP1 antibody 5E10 and WDR48 antibody 9F10. […]

COc1cc([C@@H]2c3cc4c(cc3[C@@H](O[C@@H]3O[C@@H]5CO[C@@H](C)O[C@H]5[C@H](O)[C@H]3O)[C@H]3COC(=O)[C@H]23)OCO4)cc(OC)c1O [etoposide]
p21 induction: induced
